US20250345370A1, “MICROBIAL LIBERATION OF N-METHYLSEROTONIN FROM ORANGE FIBER” (Washington University, priority 2022, published 2025)

Assays:
[1] = N-methylserotonin in drinking water of germ-free mice: body weight, epididymal fat, intake, survival; assay type: in vivo, germ-free C57BL/6J mice; conditions: for epididymal fat mass: vs untreated controls
Experimental: For experiments involving administration of N-methylserotonin to germ-free mice, a stock solution of the compound (100 mg/mL, Santa Cruz Biotechnologies) was prepared in sterile water and filter sterilized ([…]; Nalgene). The outer surface of tubes containing the stock solution was sterilized with Clidox (Pharmacal) and the tubes were introduced into gnotobiotic isolators using standard procedures. The stock solution was then diluted in darkened glass water bottles (Ancare) in order to administer doses of 1 mg/kg/day or 50 mg/kg/day (based on an experimentally determined average consumption of 5 mL of water/day/mouse). Every four days, bottles were replaced with new ones containing fresh N-methylserotonin. Each of the three arms of the experiment, including the control arm where unsupplemented drinking water was administered, consisted of 5 mice.
Fecal samples and body weights were collected weekly, while food and water intake were monitored daily by comparing pellet mass in the food hopper and the volume of water in water bottles at the beginning and end of a 24 h period and dividing these values by the number of mice per cage. All animals were euthanized between 0830 h and 0930 h without prior fasting. Luminal contents from the proximal and distal halves of the small intestine, the cecum and the colon, host tissues (liver, epididymal fat pads, gastrocnemius muscle, the distal quarter of the small intestine (ileum), cecum and entire colon) plus serum were collected, flash frozen in liquid nitrogen and stored at −80° C. prior to analyses.
Host effects of N-methylserotonin. To characterize the effects of N-methylserotonin on host physiology and metabolism, 12-week-old germ-free C57BL/6J mice were fed the unsupplemented HiSF-LoFV diet and administered N-methylserotonin via their drinking water at doses of 1 mg/kg/day or 50 mg/kg/day for 21 days (FIG. 2A). The 1 mg/kg/day dose was experimentally determined to result in fecal N-methylserotonin levels that were equivalent to those documented in mice colonized with the 14-member community consuming the orange fiber-supplemented HiSF-LoFV diet (133.5±15 ng/g versus 131±19 ng/g feces, respectively; p=0.92, unpaired t-test). The 50 mg/kg/d dose was equivalent to the estimated total amount of N-methylserotonin consumed each day in the 10% orange fiber-containing diet (based on the yield obtained after in vitro enzymatic digestion of the fiber with T. reesei cellulase).

colon gene expression = assay: RNA-Seq of colonic tissue of germ-free mice treated with 50 mg/kg/d N-methylserotonin; assay type: in vivo, germ-free C57BL/6J mice; conditions: for log2 fold-change: colon
5-HT2A receptor = target: T1, 5-HT2A receptor (Rattus norvegicus, UniProt P14842); conditions: cultured rat muscle, agonist activity on the 5-HT2A receptor; cited from earlier work
T1 construct: increase glucose uptake in cultured rat muscle via its agonist activity on the 5-HT2A receptor; host or cells: cultured rat muscle
T1 sequence (P14842 whole entry): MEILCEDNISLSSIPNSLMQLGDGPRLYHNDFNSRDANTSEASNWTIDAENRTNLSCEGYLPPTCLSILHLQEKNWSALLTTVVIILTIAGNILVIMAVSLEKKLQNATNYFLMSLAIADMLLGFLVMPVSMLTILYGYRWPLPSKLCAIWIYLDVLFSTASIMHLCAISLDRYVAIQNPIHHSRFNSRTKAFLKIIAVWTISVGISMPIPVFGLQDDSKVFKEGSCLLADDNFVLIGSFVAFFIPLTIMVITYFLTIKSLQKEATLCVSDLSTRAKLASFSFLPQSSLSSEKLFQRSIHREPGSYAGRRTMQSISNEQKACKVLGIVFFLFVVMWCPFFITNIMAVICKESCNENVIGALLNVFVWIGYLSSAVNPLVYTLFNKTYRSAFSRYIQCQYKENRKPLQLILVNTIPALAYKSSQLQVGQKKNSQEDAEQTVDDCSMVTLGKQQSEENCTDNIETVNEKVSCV

SMILES: CNCCc1c[nH]c2ccc(O)cc12 [N-methylserotonin]
- epididymal fat mass ([1]; 1 mg/kg/day (lower dose)): not the lower dose
- epididymal fat mass ([1]; 50 mg/kg/day (higher dose)): statistically significant reduction
- mortality ([1]; 50 mg/kg/day group, 5 mice): one animal died within the first week
- weight gain ([1]; drinking water, 21 days, vs untreated): statistically significant decrease in weight gain
- food and water intake ([1]; measured daily, all three groups): remained consistent
- colonic expression of known (Htr7, Htr2A) or related (Htr3, Htr4, Htr5 and Htr6) receptors (colon gene expression; 50 mg/kg/d vs untreated): did not reveal any statistically significant effects
- number of genes with statistically significant differences in expression in colonic tissue (colon gene expression; 50 mg/kg/d vs untreated, FDR-adjusted p<0.05): Seven hundred and forty-eight
- log2 fold-change (colon gene expression; gene 6430548M08Rik): 0.47
- log2 fold-change (colon gene expression; gene Aass): 4.35
- log2 fold-change (colon gene expression; gene Adgrg6): 1.06
- log2 fold-change (colon gene expression; gene Adgrl1): 0.82
- log2 fold-change (colon gene expression; gene Aldh1l2): 1.36
- log2 fold-change (colon gene expression; gene Ankrd35): 1.27
- log2 fold-change (colon gene expression; gene Anxa9): 3.41
- log2 fold-change (colon gene expression; gene Arhgef17): 0.43
- log2 fold-change (colon gene expression; gene Atf5): 0.70
- log2 fold-change (colon gene expression; gene Atp6v1c2): 5.46
- log2 fold-change (colon gene expression; gene Azgp1): 3.05
- log2 fold-change (colon gene expression; gene Baiap2): 0.55
- log2 fold-change (colon gene expression; gene Bcl9l): 0.57
- log2 fold-change (colon gene expression; gene Bhlha15): 2.54
- log2 fold-change (colon gene expression; gene C1s2): 6.81
- log2 fold-change (colon gene expression; gene Cabp1): 2.18
- log2 fold-change (colon gene expression; gene Cbx6): 0.65
- log2 fold-change (colon gene expression; gene Cecr2): 1.23
- log2 fold-change (colon gene expression; gene Cirbp): 0.65
- log2 fold-change (colon gene expression; gene Clca4a): 0.41
- log2 fold-change (colon gene expression; gene Col18a1): 0.40
- log2 fold-change (colon gene expression; gene Crybg2): 0.56
- log2 fold-change (colon gene expression; gene Dbp): 1.14
- log2 fold-change (colon gene expression; gene Derl3): 3.02
- log2 fold-change (colon gene expression; gene Dixdc1): 0.49
- log2 fold-change (colon gene expression; gene Dkkl1): 4.99
- log2 fold-change (colon gene expression; gene Dnase2b): 6.74
- log2 fold-change (colon gene expression; gene Doxl2): 0.01
- log2 fold-change (colon gene expression; gene Epop): 1.75
- log2 fold-change (colon gene expression; gene Fam214a): 0.49
- log2 fold-change (colon gene expression; gene Fbf1): 0.51
- log2 fold-change (colon gene expression; gene Fgl1): 3.75
- log2 fold-change (colon gene expression; gene Gdf7): 2.66
- log2 fold-change (colon gene expression; gene Gdf10): 0.91
- log2 fold-change (colon gene expression; gene Gm973): 1.71
- log2 fold-change (colon gene expression; gene Gprc5c): 2.14
- log2 fold-change (colon gene expression; gene Gsdma): 3.93
- log2 fold-change (colon gene expression; gene Gspt2): 1.14
- log2 fold-change (colon gene expression; gene Hdac7): 0.63
- log2 fold-change (colon gene expression; gene Hoxd9): 1.18
- log2 fold-change (colon gene expression; gene Igfbp5): 0.78
- log2 fold-change (colon gene expression; gene Impdh1): 0.53
- log2 fold-change (colon gene expression; gene Islr): 0.52
- log2 fold-change (colon gene expression; gene Itpripl2): 0.42
- log2 fold-change (colon gene expression; gene Jag2): 0.92
- log2 fold-change (colon gene expression; gene Kdm6b): 0.57
- log2 fold-change (colon gene expression; gene Krt14): 2.57
- log2 fold-change (colon gene expression; gene Lamc1): 0.37
- log2 fold-change (colon gene expression; gene Lrrc75b): 2.59
- log2 fold-change (colon gene expression; gene Man2a2): 0.35
- log2 fold-change (colon gene expression; gene Masp1): 1.38
- log2 fold-change (colon gene expression; gene Mns1): 1.12
- log2 fold-change (colon gene expression; gene Mtss2): 0.61
- log2 fold-change (colon gene expression; gene Mxra8): 0.45
- log2 fold-change (colon gene expression; gene Nkx3-1): 0.01
- log2 fold-change (colon gene expression; gene Npr1): 0.99
- log2 fold-change (colon gene expression; gene Nr1d1): 0.81
- log2 fold-change (colon gene expression; gene Nucb2): 3.53
- log2 fold-change (colon gene expression; gene Pacsin3): 0.87
- log2 fold-change (colon gene expression; gene Panct2): 1.72
- log2 fold-change (colon gene expression; gene Pate4): 7.55
- log2 fold-change (colon gene expression; gene Pate9): 0.01
- log2 fold-change (colon gene expression; gene Pate14): 6.47
- log2 fold-change (colon gene expression; gene Per2): 0.67
- log2 fold-change (colon gene expression; gene Pgm5): 0.29
- log2 fold-change (colon gene expression; gene Pik3ip1): 1.04
- log2 fold-change (colon gene expression; gene Pitpnm3): 0.67
- log2 fold-change (colon gene expression; gene Plau): 0.93
- log2 fold-change (colon gene expression; gene Pou3f3): 1.18
- log2 fold-change (colon gene expression; gene Prrc2a): 0.49
- log2 fold-change (colon gene expression; gene Ptges): 1.14
- log2 fold-change (colon gene expression; gene Rapgef3): 0.54
- log2 fold-change (colon gene expression; gene Rbms3): 0.45
- log2 fold-change (colon gene expression; gene Rcn1): 2.72
- log2 fold-change (colon gene expression; gene Rec8): 1.38
- log2 fold-change (colon gene expression; gene Rgs7bp): 0.57
- log2 fold-change (colon gene expression; gene Rhobtb3): 0.86
- log2 fold-change (colon gene expression; gene Serpine2): 2.50
- log2 fold-change (colon gene expression; gene Serpinf1): 0.82
- log2 fold-change (colon gene expression; gene Shroom1): 2.33
- log2 fold-change (colon gene expression; gene Slc4a8): 1.04
- log2 fold-change (colon gene expression; gene Slc23a1): 1.80
- log2 fold-change (colon gene expression; gene Sp8): 2.57
- log2 fold-change (colon gene expression; gene Spinkl): 7.58
- log2 fold-change (colon gene expression; gene Spock2): 0.54
- log2 fold-change (colon gene expression; gene Sptb): 0.85
- log2 fold-change (colon gene expression; gene Stard5): 0.43
- log2 fold-change (colon gene expression; gene Sva): 6.86
- log2 fold-change (colon gene expression; gene Syvn1): 0.58
- log2 fold-change (colon gene expression; gene Tgfbr3): 0.43
- log2 fold-change (colon gene expression; gene Tgm4): 9.55
- log2 fold-change (colon gene expression; gene Tmem44): 0.56
- log2 fold-change (colon gene expression; gene Tns1): 0.44
- log2 fold-change (colon gene expression; gene Uox): 2.40
- log2 fold-change (colon gene expression; gene Upk1b): 2.61
- log2 fold-change (colon gene expression; gene Vat1): 0.64
- log2 fold-change (colon gene expression; gene Vwa1): 0.64
- log2 fold-change (colon gene expression; gene Zbtb4): 0.37
- log2 fold-change (colon gene expression; gene Zbtb16): 1.21
- log2 fold-change (colon gene expression; gene Zfhx3): 0.54
- glucose uptake (5-HT2A receptor): able to increase glucose uptake
